Patent publication US20080004345A1, “Novel Water-Soluble Fullerene, Process for Producing the Same and Active Oxygen Generator Containing the Fullerene” (priority 2004, published 2008)

Legend:
[1] = Amount of active oxygen generated by light irradiation, cytochrome method; conditions: 200 μM solution mixed with cytochrome c in HBSS, light 220-800 nm, 30° C., 20 minutes
Description: The amount of generated active oxygen (superoxide anion, O2^−) was measured by cytochrome method. 200 μL of a solution in which cytochrome c (Nacalai Tesque Corporation) was dissolved in a Hanks' balanced salt solution (HBSS, pH 7.4, Lifetech Oriental Company) so that the final concentration might be 50 μM and 200 μL of a solution in which fullerene linked to one molecule of PEG (molecular weight 12000) prepared in Example 2 was dissolved in HBSS so that the final concentration might be 200 μM were mixed. This mixed solution was irradiated with light of various wavelengths (220-800 nm) with spectrophotofluorometer F-2000 (Hitachi, Ltd.) at 30° C. for 20 minutes. After irradiation, absorbance of the solution at 550 nm was measured with spectrophotometer DU-650 (Beckmann Company). The amount of generated O2— per minute was shown in FIG. 4 assuming a solution under light shielding condition at 30° C. for 20 minutes as control.

[2] = Particle size measurement by light scattering method; format: physicochemical; conditions: in distilled water, 1 mg/mL and 100 μg/mL
Description: Particle size measurement by light scattering method was performed on the water-soluble fullerene of the present invention. The water-soluble fullerene which was synthesized with Example 1 was dissolved in distilled water so that the final concentration might be 1 mg/mL and 100 μg/mL. This solution was measured with light scattering measuring apparatus DLS-7000 (Otsuka Electronics Co., Ltd.).

[3] = Amount of active oxygen generated by ultrasonic irradiation, viable count measurement reagent SF; conditions: 200 μM solution, 1 MHz, duty cycle 30%, five minutes, output 1.5, 2.0, 2.5 and 3.0 W/cm^2
Description: The amount of active oxygen (superoxide anion, O2^−) generated by ultrasonic irradiation was measured using viable count measurement reagent SF with reference to a report by Ukeda (DOJIN NEWS, No. 96, p 1-6, 2000). A solution in which water-soluble fullerene of Example 2 was dissolved in a Hanks' balanced salt solution so that it might be 200 μM was dispensed to 35 mm dish by 750 μL. This was mixed with 600 μL of a Hanks' balanced salt solution and 150 μL of viable count measurement reagent SF and, while stirred, irradiated with ultrasonic waves of various output (1.5, 2.0, 2.5 and 3.0 W/cm^2) with a frequency of 1 MHz, output mode (Duty cycle) 30% for five minutes from the liquid surface using an sonodynamic therapy device US-700 (Ito Ultrashort Wave Company). After irradiation, absorbance of the solution at 450 nm was measured with a spectrophotometer DU-650. The absorbance of the solution irradiated with ultrasonic wave without adding a compound at 450 nm was assumed as control and the amount of generated O2 per minute was shown in FIG. 7.

RLmale 1 cells = experiment: In vitro cancer cell growth inhibitory activity by light irradiation; format: cell-based; conditions: 62.5-250 μM solutions, light irradiated for 40 minutes, cultured three days
Description: Cancer cell growth inhibitory activity in in vitro by light irradiation was measured. RLmale 1 cells (provided by Kyoto Pasteur Laboratory) were used as a cancer cell and these cells were incubated under culture conditions of 5% CO2, 95% atmosphere, at 37° C. in RPMI 1640 culture medium (Sigma Company, containing 10% fetal bovine serum) with 100 mm dish till they became 80% confluent. The water-soluble fullerene of Example 2 was dissolved in a culture medium of the same composition as used for culture of cancer cells under light shielding condition and after adjusted to the concentration of 250 μM, it was sterilized and filtered. The sterilized solution of 250 μM was diluted with a culture medium sequentially to prepare solutions of 125 μM and 62.5 μM. […] After the culturing for three days, 10 μL each of viable count measurement reagent SF (Nacalai Tesque Corporation) was added into each well, and after kept warm in an incubator for 80 minutes, absorbance at 450 nm was measured with a microplate leader VERSAmax (Japanese Molecular Device Company). The survival rate of cancer cells was determined assuming that the absorbance at 450 nm for the case in which compound of Example 2 was not added was 100% survival rate and the results are shown in FIG. 5.

[4] = test system: mouse colon cancer Colon26; experiment: In vivo anticancer activity by light irradiation in cancer bearing mice
Description: Administration routes were changed and anticancer activity in vivo by light irradiation was compared. Cancer bearing mice were prepared by removing a tumor block which had been passaged from mouse colon cancer Colon26 cells (provided by Cancer Chemotherapy Center of Cancer Research Society) by subcutaneous transplantation of BALB/c-nn (female, Charles River-Laboratories Japan, Inc.) and transplanting a strip piece onto the back subcutis of CDF1 mouse (female, Charles River Laboratories Japan, Inc.). The cancer bearing mice were used in the experiment in five days after transplantation in which cancer having a diameter of around 5 mm was formed in subcutis. […]
Cancer bearing mice to which water-soluble fullerene was not administered and which were not irradiated with light were used as a control group and the size of the tumor of the subcutaneous region was measured for each mouse with time. The cancer size was measured by actually measuring the major axis and the minor axis of the cancer with a slide caliper and calculated using a calculation formula reported by Winn (Natl. Cancer Inst Monogr., Vol. 2, p 113-138 (1960)).

[5] = Molecular weight of aggregate by high performance liquid chromatography (TSKgel G3000PWXL); format: physicochemical; conditions: HPLC, 50 mM phosphate buffer pH 6.9 with 0.3 M sodium chloride (20% acetonitrile for Example 1), PEG molecular weight markers
Description: Measurement of molecular weight of a fraction obtained by extracting the reaction liquid with equivalent amount of distilled water in Example 1 and a fraction after passing the aqueous layer through the cation exchange resin column was carried out using high performance liquid chromatography system 8020 (Tosoh Co., Ltd.) with TSKgel G3000PWXL (Tosoh Co., Ltd.). 50 mM phosphate buffer (pH 6.9) containing 20% acetonitrile and 0.3 M sodium chloride was used as mobile phase with a flow rate of mobile phase of 0.5 mL/min and the detection was performed at ultra-violet absorption of fullerene. Polyethylene glycols having known molecular weight (molecular weight 94,000 and 5,000) were used as molecular weight markers and the retention time was shown in FIG. 1.
As a comparative control, PEG having a methyl group at one end and an aminopropyl group at the other end and having a molecular weight 5000 was used, and the measurement of molecular weight of a fullerene-water-soluble polymer conjugate synthesized in a molar ratio of 1:10 following a method described in Example 1 of JP-A-09-235235 was carried out. 50 mM phosphate buffer (pH 6.9) containing 0.3 M sodium chloride was used as mobile phase with a flow rate of mobile phase of 1 mL/min and the detection was performed at ultra-violet absorption of fullerene. […]

Substance	generation of O2− on light irradiation [1]	wavelength range of particularly significant O2− generation [1] [nm]	particle diameter of aggregate [2]	amount of active oxygen on ultrasonic irradiation [3]	survival rate of cancer cells (RLmale 1 cells)	increase of tumor volume ([4]; Colon26 bearing CDF1 mice, administration combined with light irradiation of tumor site, three consecutive days)	order of tumor suppression effect by administration route ([4]; subcutaneous or intra-tumor 6 mg/mL 100 μL, light 5 minutes after, intravenous 60 mg/mL 100 μL, light 24 hours after)	molecular weight of aggregate formed by self assembly [5]
Fullerene Linked to One Molecule of PEG (Molecular Weight 12000) [Example 2]	generation of O2— was observed in a wide wavelength range from ultraviolet to visible light areas	260 to 450	about 100 nm	the amount of active oxygen increases according to the output increases	significantly decreases the survival rate of cancer cells as the addition amount thereof increases	–	–	–
Fullerene Linked to One Molecule of PEG (Molecular Weight 5000) [Example 1]	–	–	about 50 nm	–	–	Increase of a tumor volume was suppressed	subcutaneous administration<intra-tumor administration<intravenous administration	about 100,000
